Test results reported in patent US20090253709A1 (NATIONAL DEFENSE MEDICAL CENTER, priority 2008, published 2009).

How the values were obtained:
Assay type in all cases: cell-based
[1] = tested on: different cancer cell lines; assay: In vitro cytotoxicity, Development Therapeutics Program, summary over all cell lines; details: 1.0×10^−5 M
Source text: (§1) From the in vitro experiments of the Development Therapeutics Program of the Cancer Research Institute, the United States, it was known that the synthetic heterocyclic anthraquinone derivatives of the present invention have different inhibition levels to the different cancer cell lines under the concentration of 1.0×10^−5 M. Please refer to Table 2, which is the result of in vitro cytotoxicity of 2,7-disubstituted anthraquinone derivatives of the present invention.

SK-MEL-5 = assay: In vitro cytotoxicity, Development Therapeutics Program; details: SK-MEL-5, melanoma; 1.0×10^−5 M
Source text: as §1

OVCAR-8 = assay: as above; details: OVCAR-8, ovarian cancer; 1.0×10^−5 M
Source text: as §1

K-562 = assay: as above; details: K-562, leukemia; 1.0×10^−5 M
Source text: as §1

MDA-MB-435 = assay: as above; details: MDA-MB-435, breast cancer; 1.0×10^−5 M
Source text: as §1

SK-MEL-28 = assay: as above; details: SK-MEL-28, melanoma; 1.0×10^−5 M
Source text: as §1

SNB-19 = assay: as above; details: SNB-19, CNS cancer; 1.0×10^−5 M
Source text: as §1

KM12 = assay: as above; details: KM12, colon cancer; 1.0×10^−5 M
Source text: as §1

786-0 = assay: as above; details: 786-0, renal cancer; 1.0×10^−5 M
Source text: as §1

SK-MEL-2 = assay: as above; details: SK-MEL-2, melanoma; 1.0×10^−5 M
Source text: as §1

SNB-75 = assay: as above; details: SNB-75, CNS cancer; 1.0×10^−5 M
Source text: as §1

RPMI-8226 = assay: as above; details: RPMI-8226, leukemia; 1.0×10^−5 M
Source text: as §1

OVCAR-5 = assay: as above; details: OVCAR-5, ovarian cancer; 1.0×10^−5 M
Source text: as §1

CCRF-CEM = assay: as above; details: leukemia, 1.0×10^−5 M
Source text: as §1

U251 = assay: as above; details: U251, CNS cancer; 1.0×10^−5 M
Source text: as §1

PC-3 = assay: as above; details: PC-3, prostate cancer; 1.0×10^−5 M
Source text: as §1

UACC-62 = assay: as above; details: UACC-62, melanoma; 1.0×10^−5 M
Source text: as §1

UO-31 = assay: as above; details: UO-31, renal cancer; 1.0×10^−5 M
Source text: as §1

HCC-2998 = assay: as above; details: HCC-2998, colon cancer; 1.0×10^−5 M
Source text: as §1

NCl-H322M = assay: as above; details: non-small cell lung cancer, 1.0×10^−5 M
Source text: as §1

SW-620 = assay: as above; details: SW-620, colon cancer; 1.0×10^−5 M
Source text: as §1

SF-268 = assay: as above; details: SF-268, CNS cancer; 1.0×10^−5 M
Source text: as §1

SN12C = assay: as above; details: renal cancer, 1.0×10^−5 M
Source text: as §1

OVCAR-4 = assay: as above; details: OVCAR-4, ovarian cancer; 1.0×10^−5 M
Source text: as §1

OVCAR-3 = assay: as above; details: OVCAR-3, ovarian cancer; 1.0×10^−5 M
Source text: as §1

MOLT-4 = assay: as above; details: MOLT-4, leukemia; 1.0×10^−5 M
Source text: as §1

TK-10 = assay: as above; details: TK-10, renal cancer; 1.0×10^−5 M
Source text: as §1

HL-60(TB) = assay: as above; details: leukemia, 1.0×10^−5 M
Source text: as §1

HCT-116 = assay: as above; details: HCT-116, colon cancer; 1.0×10^−5 M
Source text: as §1

NCI/ADR-RES = assay: as above; details: breast cancer, 1.0×10^−5 M
Source text: as §1

BT-549 = assay: as above; details: BT-549, breast cancer; 1.0×10^−5 M
Source text: as §1

T-47D = assay: as above; details: breast cancer, 1.0×10^−5 M
Source text: as §1

MALME-3M = assay: as above; details: melanoma, 1.0×10^−5 M
Source text: as §1

SF-295 = assay: as above; details: SF-295, CNS cancer; 1.0×10^−5 M
Source text: as §1

SF-539 = assay: as above; details: SF-539, CNS cancer; 1.0×10^−5 M
Source text: as §1

NCl-H460 = assay: as above; details: NCl-H460, non-small cell lung cancer; 1.0×10^−5 M
Source text: as §1

HOP-92 = assay: as above; details: HOP-92, non-small cell lung cancer; 1.0×10^−5 M
Source text: as §1

| Structure (SMILES) | Cellular growth rate (%), Mean [1] [%] | Cellular growth rate (%) (SK-MEL-5) | Cellular growth rate (%) (OVCAR-8) | Cellular growth rate (%) (K-562) | Cellular growth rate (%) (MDA-MB-435) | Cellular growth rate (%) (SK-MEL-28) | Cellular growth rate (%) (SNB-19) | Cellular growth rate (%) (KM12) | Cellular growth rate (%) (786-0) | Cellular growth rate (%) (SK-MEL-2) | Cellular growth rate (%) (SNB-75) | Cellular growth rate (%) (RPMI-8226) | Cellular growth rate (%) (OVCAR-5) | Cellular growth rate (%) (CCRF-CEM) | Cellular growth rate (%) (U251) | Cellular growth rate (%) (PC-3) | Cellular growth rate (%) (UACC-62) | Cellular growth rate (%) (UO-31) | Cellular growth rate (%) (HCC-2998) | Cellular growth rate (%) (NCl-H322M) | other results |
| --- | --- | --- | --- | --- | --- | --- | --- | --- | --- | --- | --- | --- | --- | --- | --- | --- | --- | --- | --- | --- | --- |
| CN(C)CC(=O)Nc1ccc2c(c1)C(=O)c1cc(NC(=O)CN(C)C)ccc1C2=O [Compound 8, 2,7-Bis[2-(dimethylamino)acetamido]anthraquinone] | 28.70 | 82.59 | 32.31 | 34.91 | 68.36 | 32.11 | 79.57 | 66.95 | 68.60 | −30.35 | 76.12 | 34.97 | 73.15 | −13.21 | 16.26 | 59.00 | 22.31 | −82.55 | −73.97 | 32.42 | Cellular growth rate (%) (SW-620): 23.36%; Cellular growth rate (%) (SF-268): 64.92%; Cellular growth rate (%) (SN12C): 27.99%; Cellular growth rate (%) (OVCAR-4): 45.70%; Cellular growth rate (%) (OVCAR-3): 43.63%; Cellular growth rate (%) (MOLT-4): 29.12%; Cellular growth rate (%) (TK-10): 73.47%; Cellular growth rate (%) (HL-60(TB)): −64.97%; Cellular growth rate (%) (HCT-116): 19.07%; Cellular growth rate (%) (NCI/ADR-RES): 47.84%; Cellular growth rate (%) (BT-549): 85.36%; Cellular growth rate (%) (T-47D): 24.62%; Cellular growth rate (%) (MALME-3M): 96.21%; Cellular growth rate (%) (SF-295): −83.51%; Cellular growth rate (%) (SF-539): −3.72%; Cellular growth rate (%) (NCl-H460): 5.01%; Cellular growth rate (%) (HOP-92): 56.14% |
| CCN(CC)CCC(=O)Nc1ccc2c(c1)C(=O)c1cc(NC(=O)CCN(CC)CC)ccc1C2=O [Compound 16, 2,7-Bis[3-(diethylamino)propionamido]anthraquinone] | 16.33 | 82.75 | 4.30 | 8.10 | 71.07 | 2.56 | 75.84 | 21.82 | 24.72 | −60.38 | 46.62 | −29.02 | 33.63 | −6.02 | 21.65 | 13.59 | 44.45 | −31.53 | −87.42 | 44.75 | Cellular growth rate (%) (SW-620): 16.93%; Cellular growth rate (%) (SF-268): 35.18%; Cellular growth rate (%) (SN12C): 8.63%; Cellular growth rate (%) (OVCAR-4): 24.92%; Cellular growth rate (%) (OVCAR-3): 10.39%; Cellular growth rate (%) (MOLT-4): 5.42%; Cellular growth rate (%) (TK-10): 17.16%; Cellular growth rate (%) (HL-60(TB)): 14.01%; Cellular growth rate (%) (HCT-116): −32.45%; Cellular growth rate (%) (NCI/ADR-RES): 59.52%; Cellular growth rate (%) (BT-549): 57.04%; Cellular growth rate (%) (T-47D): 68.62%; Cellular growth rate (%) (MALME-3M): 62.39%; Cellular growth rate (%) (SF-295): −19.91%; Cellular growth rate (%) (SF-539): 37.15%; Cellular growth rate (%) (NCl-H460): 9.50%; Cellular growth rate (%) (HOP-92): 9.70% |
| O=C(CCN1CCCC1)Nc1ccc2c(c1)C(=O)c1cc(NC(=O)CCN3CCCC3)ccc1C2=O [Compound 18, 2,7-Bis[3-(pyrrolidino)propionamido]anthraquinone] | 30.97 | 56.94 | 19.58 | 6.40 | 68.84 | 14.99 | 66.97 | 32.55 | 40.51 | −45.21 | 77.47 | 47.90 | 18.81 | 3.74 | 18.16 | 21.66 | 42.72 | 5.27 | 19.99 | 45.79 | Cellular growth rate (%) (SW-620): 20.01%; Cellular growth rate (%) (SF-268): 26.67%; Cellular growth rate (%) (SN12C): 6.68%; Cellular growth rate (%) (OVCAR-4): 49.82%; Cellular growth rate (%) (OVCAR-3): 36.88%; Cellular growth rate (%) (MOLT-4): 22.97%; Cellular growth rate (%) (TK-10): 31.22%; Cellular growth rate (%) (HL-60(TB)): 85.84%; Cellular growth rate (%) (HCT-116): 10.51%; Cellular growth rate (%) (NCI/ADR-RES): 80.59%; Cellular growth rate (%) (BT-549): 76.91%; Cellular growth rate (%) (T-47D): 58.98%; Cellular growth rate (%) (MALME-3M): 47.00%; Cellular growth rate (%) (SF-295): 48.62%; Cellular growth rate (%) (SF-539): 33.75%; Cellular growth rate (%) (NCl-H460): 25.52%; Cellular growth rate (%) (HOP-92): 7.04% |
| CC(=O)Nc1ccc2c(c1)C(=O)c1cc(NC(C)=O)ccc1C2=O [Compound 26, 2,7-Bis(acetamido)anthraquinone] | 99.06 | 108.87 | 99.85 | 98.54 | 109.48 | 117.60 | 94.40 | 105.94 | 97.72 | 30.15 | 106.91 | 121.47 | 102.27 | 99.77 | 95.14 | 102.73 | 101.24 | 96.42 | 105.35 | 97.50 | Cellular growth rate (%) (SW-620): 103.21%; Cellular growth rate (%) (SF-268): 113.68%; Cellular growth rate (%) (SN12C): 113.35%; Cellular growth rate (%) (OVCAR-4): 103.60%; Cellular growth rate (%) (OVCAR-3): 111.06%; Cellular growth rate (%) (MOLT-4): 96.96%; Cellular growth rate (%) (TK-10): 118.38%; Cellular growth rate (%) (HL-60(TB)): 38.74%; Cellular growth rate (%) (HCT-116): 101.91%; Cellular growth rate (%) (NCI/ADR-RES): 114.26%; Cellular growth rate (%) (BT-549): 93.29%; Cellular growth rate (%) (T-47D): 96.17%; Cellular growth rate (%) (MALME-3M): 111.26%; Cellular growth rate (%) (SF-295): 103.25%; Cellular growth rate (%) (SF-539): 103.04%; Cellular growth rate (%) (NCl-H460): 109.29%; Cellular growth rate (%) (HOP-92): 101.26% |
